Data reported in PubChem BioAssay (NCI).
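Dose response: 5 concentrations. Exposure: 48 h. Format: 96-well plates. Endpoint: linear interpolation; highest concentration if not reached. The concentration for 50% growth inhibition is given as GI50. TGI: total growth inhibition.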

Key:
Test in all cases: DTP human tumour cell line panel, 48 h
OVCAR-5 ovarian = system: OVCAR-5 ovarian
K-562 leukemia = system: K-562 leukemia
MOLT-4 leukemia = system: MOLT-4 leukemia
SK-MEL-5 melanoma = system: SK-MEL-5 melanoma
RPMI-8226 leukemia = system: RPMI-8226 leukemia
EKVX NSCLC = system: EKVX NSCLC
A498 renal = system: A498 renal
HCC-2998 colon = system: HCC-2998 colon
NCI-H522 lung = system: NCI-H522 lung
HCT-116 colon = system: HCT-116 colon
PC-3 prostate = system: PC-3 prostate
BT-549 breast = system: BT-549 breast
NCI-H460 lung = system: NCI-H460 lung
UO-31 renal = system: UO-31 renal
NCI-H226 lung = system: NCI-H226 lung
MDA-MB-435 = system: MDA-MB-435
HT29 colon = system: HT29 colon
RXF 393 renal = system: RXF 393 renal
IGROV1 ovarian = system: IGROV1 ovarian
SNB-19 CNS = system: SNB-19 CNS
NCI/ADR-RES ovarian = system: NCI/ADR-RES ovarian
SK-MEL-2 melanoma = system: SK-MEL-2 melanoma
M14 melanoma = system: M14 melanoma
HOP-92 NSCLC = system: HOP-92 NSCLC
NCI-H23 lung = system: NCI-H23 lung
CAKI-1 renal = system: CAKI-1 renal
ACHN renal = system: ACHN renal
HCT-15 colon = system: HCT-15 colon
T-47D breast = system: T-47D breast
OVCAR-4 ovarian = system: OVCAR-4 ovarian
MDA-MB-468 breast = system: MDA-MB-468 breast
TK-10 renal = system: TK-10 renal
OVCAR-8 ovarian = system: OVCAR-8 ovarian
U251 CNS = system: U251 CNS
UACC-62 melanoma = system: UACC-62 melanoma
CCRF-CEM leukemia = system: CCRF-CEM leukemia
SK-MEL-28 melanoma = system: SK-MEL-28 melanoma
UACC-257 melanoma = system: UACC-257 melanoma
KM12 colon = system: KM12 colon
A549 NSCLC = system: A549 NSCLC
SK-OV-3 ovarian = system: SK-OV-3 ovarian
MALME-3M melanoma = system: MALME-3M melanoma
DU-145 prostate = system: DU-145 prostate
SNB-75 CNS = system: SNB-75 CNS
HL-60(TB) leukemia = system: HL-60(TB) leukemia
SR leukemia = system: SR leukemia
OVCAR-3 ovarian = system: OVCAR-3 ovarian
SF-295 CNS = system: SF-295 CNS
786-0 renal = system: 786-0 renal
MCF7 breast = system: MCF7 breast
SN12C renal = system: SN12C renal
SF-539 CNS = system: SF-539 CNS
SF-268 CNS = system: SF-268 CNS
COLO 205 colon = system: COLO 205 colon
HOP-62 NSCLC = system: HOP-62 NSCLC

COc1ccc(-c2ccnc(SCc3cc4cc(OC)ccc4[nH]c3=O)n2)cc1
GI50 (OVCAR-5 ovarian): 23.6 µM | TGI (OVCAR-5 ovarian): > 100 µM | GI50 (K-562 leukemia): 2.55 µM | TGI (K-562 leukemia): > 100 µM | GI50 (MOLT-4 leukemia): 3.26 µM | TGI (MOLT-4 leukemia): > 100 µM | GI50 (SK-MEL-5 melanoma): 4.95 µM | TGI (SK-MEL-5 melanoma): 38 µM | GI50 (RPMI-8226 leukemia): 5.05 µM | TGI (RPMI-8226 leukemia): > 100 µM | GI50 (EKVX NSCLC): 4.16 µM | TGI (EKVX NSCLC): > 100 µM | GI50 (A498 renal): > 100 µM | TGI (A498 renal): > 100 µM | GI50 (HCC-2998 colon): 31.4 µM | TGI (HCC-2998 colon): > 100 µM | GI50 (NCI-H522 lung): 7.82 µM | TGI (NCI-H522 lung): > 100 µM | GI50 (HCT-116 colon): 3.64 µM | TGI (HCT-116 colon): > 100 µM | GI50 (PC-3 prostate): 6.96 µM | TGI (PC-3 prostate): > 100 µM | GI50 (BT-549 breast): 3.4 µM | TGI (BT-549 breast): > 100 µM | GI50 (NCI-H460 lung): 7.41 µM | TGI (NCI-H460 lung): > 100 µM | GI50 (UO-31 renal): 8.94 µM | TGI (UO-31 renal): > 100 µM | GI50 (NCI-H226 lung): 8.14 µM | TGI (NCI-H226 lung): > 100 µM | GI50 (MDA-MB-435): 3.17 µM | TGI (MDA-MB-435): > 100 µM | GI50 (HT29 colon): 5.38 µM | TGI (HT29 colon): > 100 µM | GI50 (RXF 393 renal): 4.42 µM | TGI (RXF 393 renal): > 100 µM | GI50 (IGROV1 ovarian): 5.66 µM | TGI (IGROV1 ovarian): > 100 µM | GI50 (SNB-19 CNS): 35.2 µM | TGI (SNB-19 CNS): > 100 µM | GI50 (NCI/ADR-RES ovarian): 4.06 µM | TGI (NCI/ADR-RES ovarian): > 100 µM | GI50 (SK-MEL-2 melanoma): 6.27 µM | TGI (SK-MEL-2 melanoma): > 100 µM | GI50 (M14 melanoma): 7.31 µM | TGI (M14 melanoma): > 100 µM | GI50 (HOP-92 NSCLC): 7.95 µM | TGI (HOP-92 NSCLC): > 100 µM | GI50 (NCI-H23 lung): 19 µM | TGI (NCI-H23 lung): > 100 µM | GI50 (CAKI-1 renal): 6.11 µM | TGI (CAKI-1 renal): > 100 µM | GI50 (ACHN renal): 20.6 µM | TGI (ACHN renal): > 100 µM | GI50 (HCT-15 colon): 4.33 µM | TGI (HCT-15 colon): > 100 µM | GI50 (T-47D breast): 4.97 µM | TGI (T-47D breast): > 100 µM | GI50 (OVCAR-4 ovarian): 17.6 µM | TGI (OVCAR-4 ovarian): > 100 µM | GI50 (MDA-MB-468 breast): 2.09 µM | TGI (MDA-MB-468 breast): 6.16 µM | GI50 (TK-10 renal): 26.1 µM | TGI (TK-10 renal): > 100 µM | GI50 (OVCAR-8 ovarian): 22.8 µM | TGI (OVCAR-8 ovarian): > 100 µM | GI50 (U251 CNS): 12.4 µM | TGI (U251 CNS): > 100 µM | GI50 (UACC-62 melanoma): 4.62 µM | TGI (UACC-62 melanoma): > 100 µM | GI50 (CCRF-CEM leukemia): 6.66 µM | TGI (CCRF-CEM leukemia): > 100 µM | GI50 (SK-MEL-28 melanoma): 14.1 µM | TGI (SK-MEL-28 melanoma): > 100 µM | GI50 (UACC-257 melanoma): 74.5 µM | TGI (UACC-257 melanoma): > 100 µM | GI50 (KM12 colon): 9.43 µM | TGI (KM12 colon): > 100 µM | GI50 (A549 NSCLC): 10.1 µM | TGI (A549 NSCLC): > 100 µM | GI50 (SK-OV-3 ovarian): 56.3 µM | TGI (SK-OV-3 ovarian): > 100 µM | GI50 (MALME-3M melanoma): 17 µM | TGI (MALME-3M melanoma): > 100 µM | GI50 (DU-145 prostate): 34.9 µM | TGI (DU-145 prostate): > 100 µM | GI50 (SNB-75 CNS): 2.46 µM | TGI (SNB-75 CNS): 71.4 µM | GI50 (HL-60(TB) leukemia): 2.34 µM | TGI (HL-60(TB) leukemia): > 100 µM | GI50 (SR leukemia): 2.95 µM | TGI (SR leukemia): > 100 µM | GI50 (OVCAR-3 ovarian): 17.9 µM | TGI (OVCAR-3 ovarian): > 100 µM | GI50 (SF-295 CNS): 7.09 µM | TGI (SF-295 CNS): > 100 µM | GI50 (786-0 renal): 26 µM | TGI (786-0 renal): > 100 µM | GI50 (MCF7 breast): 4.65 µM | TGI (MCF7 breast): > 100 µM | GI50 (SN12C renal): 7.41 µM | TGI (SN12C renal): > 100 µM | GI50 (SF-539 CNS): 6.67 µM | TGI (SF-539 CNS): > 100 µM | GI50 (SF-268 CNS): 17.7 µM | TGI (SF-268 CNS): > 100 µM | GI50 (COLO 205 colon): 17.3 µM | TGI (COLO 205 colon): > 100 µM | GI50 (HOP-62 NSCLC): 10.9 µM | TGI (HOP-62 NSCLC): 97.9 µM

CC[C@]1(O)CC2CN(CCc3c([nH]c4ccccc34)[C@@](C(=O)OC)(c3cc4c(cc3OC)N(C=O)[C@H]3[C@@](O)(C(=O)OC)[C@H](OC(C)=O)[C@]5(CC)C=CCN6CC[C@]43[C@@H]65)C2)C1 (some centres undefined)
GI50 (MDA-MB-468 breast): < 0.005 µM | TGI (MDA-MB-468 breast): > 28.5 µM

CCOc1ccc2c(c1)CN(Cc1ccc(Cl)cc1)CO2
GI50 (MDA-MB-468 breast): 16.3 µM | TGI (MDA-MB-468 breast): 34.9 µM

CCCCCCCCCCCCCCCCCCOc1ccccc1CC(=O)OCC[N+](CC)(CC)CC
GI50 (MDA-MB-468 breast): 0.904 µM | TGI (MDA-MB-468 breast): 2.15 µM

O=C1c2ccccc2C(=O)c2c1ccc1c(=O)n(-c3ccccc3C(F)(F)F)nnc21
GI50 (MDA-MB-468 breast): 1.43 µM | TGI (MDA-MB-468 breast): 3.71 µM

O=c1c2ccccc2nc(-c2ccccc2Cl)n1-c1nnc(C(F)(F)F)s1
GI50 (MDA-MB-468 breast): 2.29 µM | TGI (MDA-MB-468 breast): 7.81 µM

Nc1nnnc2nc[nH]c12
GI50 (MDA-MB-468 breast): 0.369 µM

COc1ccc(C(=O)O[C@H]2[C@H](O[C@H]3[C@@H](O)COC(O[C@H]4C[C@H]5[C@@H]6CC=C7C[C@@H](O)CC[C@]7(C)[C@H]6CC[C@]5(C)[C@H]4[C@H](C)C(=O)CCC(C)C)[C@@H]3OC(C)=O)OC[C@@H](O)[C@@H]2O)c(C)c1 (some centres undefined)
GI50 (MDA-MB-468 breast): 0.0104 µM | TGI (MDA-MB-468 breast): 4.89 µM

COc1ccccc1/C=C/C1=C(C)CCC(c2ccccc2OC)C1C (centres undefined)
GI50 (MDA-MB-468 breast): 0.118 µM | TGI (MDA-MB-468 breast): > 100 µM

COc1cc(/C=C/C(=O)/C=C/c2cc3ccc(Cl)cc3n(Cc3ccccc3)c2=O)ccc1O
GI50 (MDA-MB-468 breast): 1.65 µM | TGI (MDA-MB-468 breast): 5.2 µM

c1ccc(-c2n(Cc3ccc4ccccc4c3)cc[n+]2Cc2ccc3ccccc3c2)cc1
GI50 (MDA-MB-468 breast): 0.245 µM | TGI (MDA-MB-468 breast): 1.18 µM

C=C1C(=O)O[C@H]2[C@H]1CC/C(Cn1cc(-c3cccc(Cl)c3)nn1)=C\CC[C@@]1(C)O[C@@H]21
GI50 (MDA-MB-468 breast): 0.569 µM | TGI (MDA-MB-468 breast): 2.14 µM

COc1cc(/C=C/C(=O)N2CCC=CC2=O)cc(OC)c1OC
GI50 (MDA-MB-468 breast): 1.73 µM | TGI (MDA-MB-468 breast): 4.7 µM

OCc1ccc(N2CCc3cc(F)ccc3C2)cc1Cl
GI50 (MDA-MB-468 breast): 0.0101 µM | TGI (MDA-MB-468 breast): < 0.0182 µM

CCOC(=O)/C(C#N)=C1\SS/C(=C(/C#N)C(=O)OCC)S1
GI50 (MDA-MB-468 breast): 15.6 µM | TGI (MDA-MB-468 breast): 33 µM

O=C(Nc1ccc(-n2ccc3c(NC(=O)c4ccccc4)nccc32)cc1)Nc1cccc(C(F)(F)F)c1
GI50 (MDA-MB-468 breast): 2.47 µM | TGI (MDA-MB-468 breast): 10.5 µM
